Legend:
FAAH [1] = biological target: T1, FAAH (Mus musculus, UniProt O08914); assay: In vitro competitive activity-based protein profiling (Table 2, % inhibition at 1 μM); type: biochemical; details: read-out: % Inhibition at 1 μM FAAH
T1 sequence (O08914 1-579): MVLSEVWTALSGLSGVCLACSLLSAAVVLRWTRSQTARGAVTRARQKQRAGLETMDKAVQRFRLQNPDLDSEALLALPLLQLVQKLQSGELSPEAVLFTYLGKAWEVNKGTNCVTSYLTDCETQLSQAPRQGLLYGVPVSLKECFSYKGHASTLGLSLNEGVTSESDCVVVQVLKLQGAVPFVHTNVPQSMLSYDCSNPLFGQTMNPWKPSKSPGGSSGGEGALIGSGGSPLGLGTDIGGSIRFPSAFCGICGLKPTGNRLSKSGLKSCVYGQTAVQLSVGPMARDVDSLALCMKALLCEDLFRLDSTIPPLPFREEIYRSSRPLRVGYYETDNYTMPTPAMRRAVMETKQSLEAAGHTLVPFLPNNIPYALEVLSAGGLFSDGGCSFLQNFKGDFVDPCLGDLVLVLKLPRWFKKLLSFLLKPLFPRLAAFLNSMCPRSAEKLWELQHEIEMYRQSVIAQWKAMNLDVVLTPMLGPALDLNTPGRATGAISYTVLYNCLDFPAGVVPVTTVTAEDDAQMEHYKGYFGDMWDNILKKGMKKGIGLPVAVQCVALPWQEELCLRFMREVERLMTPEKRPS

ABHD6 [2] = biological target: T2, ABHD6 (Mus musculus, UniProt Q8R2Y0); assay: as above; type: biochemical; details: read-out: % Inhibition at 1 μM ABHD6
T2 sequence (Q8R2Y0 1-336): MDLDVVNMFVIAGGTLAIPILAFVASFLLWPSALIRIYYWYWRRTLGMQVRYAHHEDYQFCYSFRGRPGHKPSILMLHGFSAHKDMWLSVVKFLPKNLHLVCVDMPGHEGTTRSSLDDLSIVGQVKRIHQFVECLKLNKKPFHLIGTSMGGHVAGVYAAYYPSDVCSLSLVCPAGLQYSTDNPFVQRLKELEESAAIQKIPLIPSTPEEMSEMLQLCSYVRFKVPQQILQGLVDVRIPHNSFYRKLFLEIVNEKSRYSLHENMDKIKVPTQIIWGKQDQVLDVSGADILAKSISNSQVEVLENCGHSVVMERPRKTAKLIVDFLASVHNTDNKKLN

ABHD6 [3] = biological target: T2, ABHD6; assay: biochemical; details: in vitro competitive ABPP
FAAH [4] = biological target: T1, FAAH; assay: biochemical; details: in vitro competitive ABPP
MAGL [5] = biological target: T3, MAGL (Mus musculus, UniProt O35678); assay: biochemical; details: mouse; in vitro competitive ABPP; read-out: Mouse (IC50 value, nM) MAGL
T3 sequence (O35678 1-303): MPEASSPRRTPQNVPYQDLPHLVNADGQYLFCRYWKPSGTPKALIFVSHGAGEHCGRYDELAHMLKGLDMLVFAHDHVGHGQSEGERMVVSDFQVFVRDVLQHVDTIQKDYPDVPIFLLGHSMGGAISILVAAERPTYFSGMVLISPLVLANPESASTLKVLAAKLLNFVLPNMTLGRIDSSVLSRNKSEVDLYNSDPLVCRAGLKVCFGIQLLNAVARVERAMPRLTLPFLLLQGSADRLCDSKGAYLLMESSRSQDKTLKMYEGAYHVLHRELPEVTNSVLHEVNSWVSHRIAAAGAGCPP

MAGL [6] = biological target: T3, MAGL; assay: In vitro competitive activity-based protein profiling (Table 2, % inhibition at 1 μM); type: biochemical; details: read-out: % Inhibition at 1 μM MAGL
Protocol: After 30 min, FP—Rh (1.0 μL, 50 μM in DMSO) was added and the mixture was incubated for another 30 min at 37° C. Reactions were quenched with SDS loading buffer (50 μL-4×) and run on SDS-PAGE.
Cell lysates were diluted with mock proteomes for use in competitive ABPP experiments.

Compound: CC(C)(C)c1cc(CN2CC3CN(C(=O)OC(C(F)(F)F)C(F)(F)F)CC3C2)n(C2CCOCC2)n1 (stereo not drawn) [Example 157, 1,1,1,3,3,3-hexafluoropropan-2-yl 5-[[3-tert-butyl-1-(oxan-4-yl)-1H-pyrazol-5-yl]methyl]-octahydropyrrolo[3,4-c]pyrrole-2-carboxylate]
- inhibition at 1 µM (FAAH [1]): < 25%
- inhibition at 1 µM (ABHD6 [2]): < 25%
- IC50 (ABHD6 [3]): 1000 to 10000 nM
- IC50 (FAAH [4]): > 10000 nM
- IC50 (MAGL [5]): 100 to 1000 nM
- inhibition at 1 µM (MAGL [6]): > 75%

Compound: O=C(OC(C(F)(F)F)C(F)(F)F)N1CC2CN(Cc3ccc(N4CCOCC4)cc3C(F)F)CC2C1 (stereo not drawn) [Example 200, 1,1,1,3,3,3-hexafluoropropan-2-yl 5-(2-(difluoromethyl)-4-morpholinobenzyl)hexahydropyrrolo[3,4-c]pyrrole-2(1H)-carboxylate]
- inhibition at 1 µM (FAAH [1]): 25 to 75%
- inhibition at 1 µM (ABHD6 [2]): < 25%
- IC50 (ABHD6 [3]): 1000 to 10000 nM
- IC50 (FAAH [4]): 1000 to 10000 nM
- IC50 (MAGL [5]): 100 to 1000 nM
- inhibition at 1 µM (MAGL [6]): > 75%

Compound: CCn1cc(CN2CC3CN(C(=O)OC(C(F)(F)F)C(F)(F)F)CC3C2)c(-c2ccncc2)n1 (stereo not drawn) [Example 72, 1,1,1,3,3,3-Hexafluoropropan-2-yl 5-[[1-ethyl-3-(pyridin-4-yl)-1H-pyrazol-4-yl]methyl]-octahydropyrrolo[3,4-c]pyrrole-2-carboxylate]
- inhibition at 1 µM (FAAH [1]): < 25%
- inhibition at 1 µM (ABHD6 [2]): 25 to 75%
- IC50 (ABHD6 [3]): 1000 to 10000 nM
- IC50 (FAAH [4]): 1000 to 10000 nM
- IC50 (MAGL [5]): < 100 nM
- inhibition at 1 µM (MAGL [6]): > 75%

Compound: O=C(OC(C(F)(F)F)C(F)(F)F)N1CC2CN(Cc3ccc(N4CCCCC4)cc3C(F)F)CC2C1 (stereo not drawn) [Example 201, 1,1,1,3,3,3-hexafluoropropan-2-yl 5-(2-(difluoromethyl)-4-(piperidin-1-yl)benzyl)hexahydropyrrolo[3,4-c]pyrrole-2(1H)-carboxylate]
- inhibition at 1 µM (FAAH [1]): 25 to 75%
- inhibition at 1 µM (ABHD6 [2]): < 25%
- IC50 (ABHD6 [3]): 1000 to 10000 nM
- IC50 (FAAH [4]): 1000 to 10000 nM
- IC50 (MAGL [5]): 100 to 1000 nM
- inhibition at 1 µM (MAGL [6]): > 75%

Compound: Cc1c(CN2CC3CN(C(=O)OC(C(F)(F)F)C(F)(F)F)CC3C2)cccc1N1CCC2(CCOC2)C1 (stereo not drawn) [Example 46, 1,1,1,3,3,3-Hexafluoropropan-2-yl 5-[(2-methyl-3-[2-oxa-7-azaspiro[4.4]nonan-7-yl]phenyl)methyl]-octahydropyrrolo[3,4-c]pyrrole-2-carboxylate]
- inhibition at 1 µM (FAAH [1]): 25 to 75%
- inhibition at 1 µM (ABHD6 [2]): < 25%
- IC50 (ABHD6 [3]): 1000 to 10000 nM
- IC50 (FAAH [4]): 1000 to 10000 nM
- IC50 (MAGL [5]): < 100 nM
- inhibition at 1 µM (MAGL [6]): > 75%

Compound: CC(=O)N1CCC(n2nc(C)cc2CN2CC3CN(C(=O)OC(C(F)(F)F)C(F)(F)F)CC3C2)CC1 (stereo not drawn) [Example 60, 1,1,1,3,3,3-Hexafluoropropan-2-yl 5-[[1-(1-acetylpiperidin-4-yl)-3-methyl-1H-pyrazol-5-yl]methyl]-octahydropyrrolo[3,4-c]pyrrole-2-carboxylate]
- inhibition at 1 µM (FAAH [1]): < 25%
- inhibition at 1 µM (ABHD6 [2]): < 25%
- IC50 (ABHD6 [3]): 1000 to 10000 nM
- IC50 (FAAH [4]): > 10000 nM
- IC50 (MAGL [5]): 100 to 1000 nM
- inhibition at 1 µM (MAGL [6]): > 75%

Compound: CC(C)n1cc(CN2CC3CN(C(=O)OC(C(F)(F)F)C(F)(F)F)CC3C2)c(-c2ccccc2)n1 (stereo not drawn) [Example 53, 1,1,1,3,3,3-Hexafluoropropan-2-yl 5-[[3-phenyl-1-(propan-2-yl)-1H-pyrazol-4-yl]methyl]-octahydropyrrolo[3,4-c]pyrrole-2-carboxylate]
- inhibition at 1 µM (FAAH [1]): < 25%
- inhibition at 1 µM (ABHD6 [2]): 25 to 75%
- IC50 (ABHD6 [3]): 1000 to 10000 nM
- IC50 (FAAH [4]): 1000 to 10000 nM
- IC50 (MAGL [5]): < 100 nM
- inhibition at 1 µM (MAGL [6]): > 75%

Compound: O=C(OC(C(F)(F)F)C(F)(F)F)N1CC2CN(Cc3cccc(-c4ccccc4)c3)CC2C1 (stereo not drawn) [Example 13, 1,1,1,3,3,3-Hexafluoropropan-2-yl 5-[(3-phenylphenyl)methyl]-octahydropyrrolo[3,4-c]pyrrole-2-carboxylate]
- inhibition at 1 µM (FAAH [1]): 25 to 75%
- inhibition at 1 µM (ABHD6 [2]): < 25%
- IC50 (ABHD6 [3]): 1000 to 10000 nM
- IC50 (FAAH [4]): 100 to 1000 nM
- IC50 (MAGL [5]): < 100 nM
- inhibition at 1 µM (MAGL [6]): > 75%

Compound: O=C(OC(C(F)(F)F)C(F)(F)F)N1CC2CN(Cc3ccc(Cl)cc3N3CCN4CCC[C@@H]4C3)CC2C1 (stereo partly drawn) [Example 35, 1,1,1,3,3,3-Hexafluoropropan-2-yl 5-(4-chloro-2-((R)-hexahydropyrrolo[1,2-a]pyrazin-2(1H)-yl)benzyl)-hexahydropyrrolo[3,4-c]pyrrole-2(1H)-carboxylate]
- inhibition at 1 µM (FAAH [1]): < 25%
- inhibition at 1 µM (ABHD6 [2]): < 25%
- IC50 (ABHD6 [3]): 1000 to 10000 nM
- IC50 (FAAH [4]): > 10000 nM
- IC50 (MAGL [5]): 100 to 1000 nM
- inhibition at 1 µM (MAGL [6]): > 75%

Compound: Cc1c(CN2CC3CN(C(=O)OC(C(F)(F)F)C(F)(F)F)CC3C2)cccc1C(=O)N1CCCCC1 (stereo not drawn) [Example 187, 1,1,1,3,3,3-hexafluoropropan-2-yl 5-(2-methyl-3-(piperidine-1-carbonyl)benzyl)hexahydropyrrolo[3,4-c]pyrrole-2(1H)-carboxylate]
- inhibition at 1 µM (FAAH [1]): < 25%
- inhibition at 1 µM (ABHD6 [2]): 25 to 75%
- IC50 (ABHD6 [3]): 1000 to 10000 nM
- IC50 (FAAH [4]): 1000 to 10000 nM
- IC50 (MAGL [5]): < 100 nM
- inhibition at 1 µM (MAGL [6]): > 75%

Compound: O=C(OC(C(F)(F)F)C(F)(F)F)N1CC2CN(Cc3ccc(N4CCOCC4)cc3F)CC2C1 (stereo not drawn) [Example 1, 1,1,1,3,3,3-Hexafluoropropan-2-yl 5-(2-fluoro-4-morpholinobenzyl)hexahydropyrrolo[3,4-c]pyrrole-2(1H)-carboxylate]
- inhibition at 1 µM (FAAH [1]): 25 to 75%
- inhibition at 1 µM (ABHD6 [2]): < 25%
- IC50 (ABHD6 [3]): 1000 to 10000 nM
- IC50 (FAAH [4]): 100 to 1000 nM
- IC50 (MAGL [5]): < 100 nM
- inhibition at 1 µM (MAGL [6]): > 75%

Compound: CC(C)c1ccc(CN2CC3CN(C(=O)OC(C(F)(F)F)C(F)(F)F)CC3C2)c(N2CCOCC2)c1 (stereo not drawn) [Example 22, 1,1,1,3,3,3-Hexafluoropropan-2-yl 5-[[2-(morpholin-4-yl)-4-(propan-2-yl)phenyl]methyl]-octahydropyrrolo[3,4-c]pyrrole-2-carboxylate]
- inhibition at 1 µM (FAAH [1]): < 25%
- inhibition at 1 µM (ABHD6 [2]): < 25%
- IC50 (ABHD6 [3]): 1000 to 10000 nM
- IC50 (FAAH [4]): 1000 to 10000 nM
- IC50 (MAGL [5]): 100 to 1000 nM
- inhibition at 1 µM (MAGL [6]): > 75%

Compound: O=C(OC(C(F)(F)F)C(F)(F)F)N1CC2CN(Cc3ccc(N4CCCC4)cc3C(F)F)CC2C1 (stereo not drawn) [Example 202, 1,1,1,3,3,3-hexafluoropropan-2-yl 5-(2-(difluoromethyl)-4-(pyrrolidin-1-yl)benzyl)hexahydropyrrolo[3,4-c]pyrrole-2(1H)-carboxylate]
- inhibition at 1 µM (FAAH [1]): 25 to 75%
- inhibition at 1 µM (ABHD6 [2]): < 25%
- IC50 (ABHD6 [3]): 1000 to 10000 nM
- IC50 (FAAH [4]): 1000 to 10000 nM
- IC50 (MAGL [5]): 100 to 1000 nM
- inhibition at 1 µM (MAGL [6]): > 75%

Compound: Cc1c(CN2CC3CN(C(=O)ON4C(=O)CCC4=O)CC3C2)cccc1N1CCCCC1 (stereo not drawn) [Example 104, 2,5-Dioxopyrrolidin-1-yl 5-[[2-methyl-3-(piperidin-1-yl)phenyl]methyl]-octahydropyrrolo[3,4-c]pyrrole-2-carboxylate]
- inhibition at 1 µM (FAAH [1]): > 75%
- inhibition at 1 µM (ABHD6 [2]): < 25%
- IC50 (ABHD6 [3]): 1000 to 10000 nM
- IC50 (FAAH [4]): 100 to 1000 nM
- IC50 (MAGL [5]): < 100 nM
- inhibition at 1 µM (MAGL [6]): > 75%

Compound: O=C(ON1C(=O)CCC1=O)N1CC2CN(Cc3ccc(N4CCOCC4)cc3OC(F)(F)F)CC2C1 (stereo not drawn) [Example 86, 2,5-Dioxopyrrolidin-1-yl 5-[[4-(morpholin-4-yl)-2-(trifluoromethoxy)phenyl]methyl]-octahydropyrrolo[3,4-c]pyrrole-2-carboxylate]
- inhibition at 1 µM (FAAH [1]): 25 to 75%
- inhibition at 1 µM (ABHD6 [2]): < 25%
- IC50 (ABHD6 [3]): 1000 to 10000 nM
- IC50 (FAAH [4]): 1000 to 10000 nM
- IC50 (MAGL [5]): 100 to 1000 nM
- inhibition at 1 µM (MAGL [6]): > 75%
